The source of these data is ChEMBL document CHEMBL3882241, “Compounds inhibiting the binding of sap for treating osteoarthritis” (2006).

Test [1] has as its target Serum amyloid P-component (Homo sapiens) (UniProt P02743). In words: Inhibition of calcium dependent [125I]serum amyloid P-component (unknown origin) binding to immobilized chicken erythrocyte native long chromatin at 2 uM incubated for 2 hrs by gamma counting relative to control.
Test [2] shares this target. In words: Inhibition of calcium dependent [125I]serum amyloid P-component (unknown origin) binding to immobilized Neisseria meningitidis at 2 uM incubated for 2 hrs by fluorescence/electron microscopy relative to control.
The target is the same in test [3]. In words: Inhibition of calcium dependent [125I]serum amyloid P-component (unknown origin) binding to immobilized chicken erythrocyte native long chromatin at 200 uM incubated for 2 hrs by gamma counting relative to control.
Test [4] has the same target. In words: Inhibition of calcium dependent [125I]serum amyloid P-component (unknown origin) binding to immobilized Neisseria meningitidis at 200 uM incubated for 2 hrs by fluorescence/electron microscopy relative to control.
Test [5] has the same target. In words: Inhibition of calcium dependent [125I]serum amyloid P-component (unknown origin) binding to immobilized Neisseria meningitidis at 20 uM incubated for 2 hrs by fluorescence/electron microscopy relative to control.
The target is the same in test [6]. In words: Inhibition of calcium dependent [125I]serum amyloid P-component (unknown origin) binding to immobilized influenza virus A/Shanghai/24/90 at 200 uM incubated for 2 hrs by fluorescence/electron microscopy relative to control.
For test [7] the target is unchanged. In words: Inhibition of calcium dependent [125I]serum amyloid P-component (unknown origin) binding to immobilized chicken erythrocyte native long chromatin at 2 mM incubated for 2 hrs by gamma counting relative to control.
The target is the same in test [8]. In words: Inhibition of calcium dependent [125I]serum amyloid P-component (unknown origin) binding to immobilized influenza virus A/Shanghai/24/90 at 2 mM incubated for 2 hrs by fluorescence/electron microscopy relative to control.
Test [9] has the same target. In words: Inhibition of calcium dependent [125I]serum amyloid P-component (unknown origin) binding to immobilized influenza virus A/Shanghai/24/90 at 200 nM incubated for 2 hrs by fluorescence/electron microscopy relative to control.
For test [10] the target is unchanged. The experiment in a line: Inhibition of calcium dependent [125I]serum amyloid P-component (unknown origin) binding to immobilized influenza virus A/Shanghai/24/90 at 2 uM incubated for 2 hrs by fluorescence/electron microscopy relative to control.
Test [11] shares this target. In words: Inhibition of calcium dependent [125I]serum amyloid P-component (unknown origin) binding to immobilized influenza virus A/Shanghai/24/90 at 20 uM incubated for 2 hrs by fluorescence/electron microscopy relative to control.
For test [12] the target is unchanged. In words: Inhibition of calcium dependent [125I]serum amyloid P-component (unknown origin) binding to immobilized Neisseria meningitidis at 200 nM incubated for 2 hrs by fluorescence/electron microscopy relative to control.
Test [13] shares this target. In words: Inhibition of calcium dependent [125I]serum amyloid P-component (unknown origin) binding to immobilized Neisseria meningitidis at 2 mM incubated for 2 hrs by fluorescence/electron microscopy relative to control.
The target is the same in test [14]. In words: Inhibition of calcium dependent [125I]serum amyloid P-component (unknown origin) binding to immobilized chicken erythrocyte native long chromatin at 20 uM incubated for 2 hrs by gamma counting relative to control.
For test [15] the target is unchanged. In words: Inhibition of calcium dependent [125I]serum amyloid P-component (unknown origin) binding to immobilized chicken erythrocyte native long chromatin at 200 nM incubated for 2 hrs by gamma counting relative to control.
The target is the same in test [16]. The note with it: 10 mM.
Description: Inhibition of calcium dependent [125I]serum amyloid P-component (unknown origin) binding to immobilized Neisseria meningitidis at 10 mM incubated for 2 hrs by fluorescence/electron microscopy relative to control

In general, inhibition refers to the drop in the measured response relative to a control, in per cent.

Sequence of Serum amyloid P-component (Homo sapiens) (P02743 whole entry): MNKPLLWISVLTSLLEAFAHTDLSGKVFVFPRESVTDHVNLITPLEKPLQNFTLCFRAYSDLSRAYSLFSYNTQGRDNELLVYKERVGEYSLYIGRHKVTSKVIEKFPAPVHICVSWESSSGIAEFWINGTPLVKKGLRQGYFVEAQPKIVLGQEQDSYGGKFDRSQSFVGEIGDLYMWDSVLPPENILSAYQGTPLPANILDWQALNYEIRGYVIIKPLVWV

For `C[N+](C)(C)CCOP(=O)([O-])O`, the inhibition came to 0% in test [1]; 5% in test [2]; 3% in test [3]; 3% in [4]; 4% in test [5]; 5% in [6]. The inhibition is 19% in test [7]; 3% in [8]; 0% in [9]; 2% in test [10]; 5% in test [11]; 0% in test [12]. The inhibition in [13] is 24%; in test [14], 0%; in test [15] it was 2%.
As to `O=C(O)[C@H]1CCCN1C(=O)COc1ccc(OCC(=O)N2CCC[C@@H]2C(=O)O)cc1`, the inhibition came out at 36% in test [1]; 65% in test [2]; 75% in test [3]; 65% in test [4]; 74% in test [5]; 84% in test [6]. Also, the inhibition in [7] turned out to be 91%; in [8] it was 87%; in test [9], 3%; in test [10], 77%; in test [11], 82%; in test [12], 0%. The inhibition in [13] is 100%; in test [14] it was 56%; in test [15], 1%.
Regarding `O=C(O)[C@H]1CCCN1C(=O)Cc1cccc(CC(=O)N2CCC[C@@H]2C(=O)O)c1`, the inhibition was determined as 18% in test [1]; 64% in [2]; 94% in test [3]; 100% in test [4]; 92% in test [5]; 77% in test [6]. Also, the inhibition was found to be 98% in test [7]; 82% in test [8]; 25% in test [9]; 68% in test [10]; 73% in test [11]; 28% in [12]. Also, the inhibition came to 100% in [13], 56% in test [14] and 0% in test [15].
On to `O=C(O)[C@H]1CCCN1C(=O)COc1ccccc1OCC(=O)N1CCC[C@@H]1C(=O)O`, for which the inhibition was determined as 34% in test [1]; 77% in test [2]; 89% in test [3]; 100% in test [4]; 87% in test [5]; 93% in [6]. For the same molecule, the inhibition stood at 96% in test [7]; 94% in [8]; 44% in test [9]; 68% in [10]; 88% in test [11]; 18% in test [12]. For the same molecule, the inhibition in test [13] was determined as 100%; in [14] it was 77%; in test [15], 7%.
Consider `NCCOP(=O)(O)O`, for which the inhibition in [1] came out at 9%; in test [2], 18%; in test [3] it was 59%; in test [4], 41%; in [5], 32%; in test [6], 51%. For the same molecule, the inhibition was 94% in test [7]; 69% in test [8]; 1% in test [9]; 8% in test [10]; 42% in test [11]; 7% in [12]. The results for the inhibition in test [13], in test [14] and in test [15] were 95%, 36% and 3%, respectively.
In the case of `Cc1c(OCC(=O)N2CCC[C@@H]2C(=O)O)cccc1OCC(=O)N1CCC[C@@H]1C(=O)O`, the inhibition in test [1] was 22%; in [2] it was 64%; in test [3], 95%; in [4], 100%; in [5], 93%; in test [6], 81%. Moreover, the inhibition in test [7] came to 98%; in [8], 85%; in test [9], 24%; in [10], 65%; in test [11], 81%; in test [12], 1%. Besides, the inhibition in test [13] was 100%; in test [14], 65%; in test [15] it was 0%.
In the case of `O=C(O)[C@H]1CCCN1C(=O)[C@H]1CC[C@@H](C(=O)N2CCC[C@@H]2C(=O)O)CC1`, the inhibition in test [1] was 35%; in [2], 73%; in test [3] it was 94%; in [4], 100%; in test [5], 93%; in test [6] it was 89%. For the same molecule, the inhibition in test [7] was 100%; in test [8] it was 92%; in test [9], 0%; in [10] it was 76%; in [11], 83%; in [12], 31%. In addition, the inhibition was 100% in [13], 67% in [14] and 1% in test [15].
Turning to `O=C(O)[C@H]1CCCN1C(=O)COc1cccc2c(OCC(=O)N3CCC[C@@H]3C(=O)O)cccc12`, the inhibition in test [1] came out at 51%; in test [2], 72%; in test [3] it was 82%; in test [4], 100%; in [5] it was 81%; in test [6] it was 76%. Moreover, the inhibition in test [7] is 96%; in test [8], 80%; in [9], 23%; in test [10], 51%; in test [11], 64%; in test [12] it was 30%. Besides, the inhibition came to 100% in [13], 74% in test [14] and 12% in test [15].
As to `O=C(O)[C@H]1CCCN1C(=O)Cc1ccc(CC(=O)N2CCC[C@@H]2C(=O)O)c2ccccc12`, the inhibition in test [1] is 35%; in [2], 69%; in [3], 96%; in test [4] it was 100%; in test [5], 89%; in test [6], 94%. The inhibition in test [7] turned out to be 100%; in [8], 98%; in [9] it was 4%; in test [10] it was 64%; in [11], 95%; in [12], 13%. For the same molecule, the inhibition came out at 100% in [13], 77% in test [14] and 15% in test [15].
For the molecule `O=C(O)[C@H]1CCCN1C(=O)Cc1ccc(CC(=O)N2CCC[C@@H]2C(=O)O)cc1`, the inhibition in [1] came to 19%; in test [2] it was 64%; in [3] it was 66%; in test [4] it was 100%; in test [5] it was 73%; in test [6], 89%. Also, the inhibition in test [7] stood at 92%; in [8], 89%; in test [9], 37%; in test [10] it was 65%; in [11], 85%; in test [12], 7%. Further, the figures for the inhibition in [13], in [14] and in [15] were 100%, 39% and 4%, respectively.
In the case of `COc1cccc(OCC(=O)N2CCC[C@@H]2C(=O)O)c1OCC(=O)N1CCC[C@@H]1C(=O)O`, the inhibition was 74% in test [2]; 96% in [3]; 93% in test [4]; 92% in test [5]; 77% in test [6]; 100% in [7]. In addition, the inhibition in [8] was determined as 89%; in [9], 16%; in test [10], 52%; in test [11], 62%; in [12], 19%; in [13], 100%. In addition, the inhibition worked out at 75% in test [14] and 11% in test [15].
Consider `O=C(O)[C@H]1CCCN1C(=O)Cc1cc(O)c(CC(=O)N2CCC[C@@H]2C(=O)O)cc1O`, for which the inhibition in test [1] was 45%; in test [2] it was 76%; in test [3], 88%; in test [4], 100%; in [5] it was 95%; in test [6], 89%. Also, the inhibition stood at 97% in [7]; 89% in test [8]; 24% in [9]; 57% in test [10]; 80% in test [11]; 1% in [12]. Further, the inhibition in test [13] was determined as 100%; in test [14], 78%; in test [15] it was 0%.
As to `O=C(O)CN(CCN(CC(=O)O)CC(=O)O)CC(=O)O`, the inhibition in [16] came out at 100%.
